From ChEMBL document CHEMBL1129407, “Synthesis and evaluation of heterocyclic carboxamides as potential antipsychotic agents” (J Med Chem, 1996)

Columns and labels:
[1] = target: T1, 5-hydroxytryptamine receptor 1A (Mus musculus, UniProt Q64264); experiment: Inhibitory activity against serotonin 5-hydroxytryptamine 1A receptor from mice.
T1 sequence (Q64264 whole entry): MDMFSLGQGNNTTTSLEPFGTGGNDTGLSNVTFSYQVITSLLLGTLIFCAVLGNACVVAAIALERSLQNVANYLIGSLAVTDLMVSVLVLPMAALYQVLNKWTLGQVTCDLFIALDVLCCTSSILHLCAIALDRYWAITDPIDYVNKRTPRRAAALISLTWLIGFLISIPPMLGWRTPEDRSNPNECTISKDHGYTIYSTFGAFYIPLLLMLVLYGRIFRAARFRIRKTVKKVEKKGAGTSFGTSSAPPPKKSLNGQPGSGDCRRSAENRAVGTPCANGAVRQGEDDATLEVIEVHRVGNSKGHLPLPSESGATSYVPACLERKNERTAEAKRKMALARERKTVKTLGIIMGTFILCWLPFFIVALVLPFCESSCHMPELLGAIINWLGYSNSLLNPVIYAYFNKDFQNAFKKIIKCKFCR

[2] = target: T2, D(2) dopamine receptor (Mus musculus, UniProt P61168); experiment: Inhibition of mouse Dopamine receptor D2
[3] = target: Serotonin 2 (5-HT2) receptor (Mus musculus, UniProt Q02152+P34968+P35363); experiment: Inhibitory activity against serotonin 5-hydroxytryptamine 2 receptor from mice.; type: protein assay
[4] = tested on: Mus musculus; experiment: Compound was tested for antagonist activity against apomorphine-induced mouse climbing (ip). using in vivo method; type: functional
[5] = tested on: Mus musculus; experiment: Compound was tested for antagonist activity against apomorphine-induced mouse climbing (po). using in vivo method; type: functional
[6] = tested on: Mus musculus; experiment: Compound was tested for antagonist activity against apomorphine-induced mouse stereotypy (po) using in vivo method; type: functional
[7] = species: Mus musculus; experiment: Compound was tested for induction of catalepsy in mouse; type: functional
[8] = Ratio of ED50 for induction of catalepsy to ED50 for antagonism of apomorphine-induced climbing.; type: functional
[9] = Ratio of ED50 for antagonism of apomorphine induced stereotypy to ED50 for antagonism of apomorphine-induced climbing.; type: functional
[10] = target: T2, D(2) dopamine receptor; experiment: Inhibitory activity against Dopamine receptor D2 from mice
[11] = tested on: Mus musculus; experiment: Compound was tested for antagonist activity against apomorphine-induced mouse climbing(intraperitoneally - ip). using in vivo method; type: functional
[12] = tested on: Mus musculus; experiment: Compound was tested for antagonist activity against apomorphine-induced mouse climbing(per orally - po). using in vivo method; type: functional
[13] = tested on: Mus musculus; experiment: Compound was tested for antagonist activity against apomorphine-induced mouse climbing (ip) using in vivo method; type: functional
[14] = tested on: Mus musculus; experiment: Compound was tested for antagonist activity against apomorphine-induced mouse climbing (po) using in vivo method; type: functional
[15] = species: Mus musculus; experiment: Compound was tested for induction of catalepsy in mouse.; type: functional
[16] = tested on: Mus musculus; experiment: Compound was tested for antagonist activity against apomorphine-induced mouse stereotypy(per orally - po). using in vivo method; type: functional

T2 sequence (P61168 whole entry): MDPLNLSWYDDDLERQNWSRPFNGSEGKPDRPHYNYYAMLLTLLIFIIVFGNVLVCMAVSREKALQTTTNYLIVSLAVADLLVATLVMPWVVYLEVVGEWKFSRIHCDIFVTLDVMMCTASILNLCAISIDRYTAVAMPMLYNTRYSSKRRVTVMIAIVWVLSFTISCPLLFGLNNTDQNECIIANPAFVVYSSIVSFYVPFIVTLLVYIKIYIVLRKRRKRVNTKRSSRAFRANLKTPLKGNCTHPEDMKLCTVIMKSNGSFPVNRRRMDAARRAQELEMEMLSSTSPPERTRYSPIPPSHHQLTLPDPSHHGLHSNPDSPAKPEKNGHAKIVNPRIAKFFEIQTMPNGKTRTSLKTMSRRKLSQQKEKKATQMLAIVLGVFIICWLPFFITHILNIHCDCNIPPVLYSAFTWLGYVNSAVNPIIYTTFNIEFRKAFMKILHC

Structure (SMILES) | IC50 [1] | IC50 [2] | IC50 [3] | ED50 [4] | ED50 [5] | IC50 [10] | also measured
O=C(NCCCCN1CCN(c2nsc3ccccc23)CC1)c1cccc2c1NCC2 | 4.3 nM | 34 nM | 3.4 nM | 2.6 mg/kg | 18.6 mg/kg |  | 
Nc1cccnc1C(=O)NCCCCN1CCN(c2nsc3ccccc23)CC1 | 3.8 nM |  | 8.3 nM |  |  |  | 
O=C(NCCCCN1CCN(c2nsc3ccccc23)CC1)c1cccc2cc[nH]c12 | 2.7 nM | 28 nM | 1.2 nM |  |  |  | 
O=C(NCCCCN1CCN(c2nsc3ccccc23)CC1)c1cccnc1 | 4.9 nM | 47 nM | 2.9 nM | 5.2 mg/kg | 15.5 mg/kg |  | 
Nc1ccsc1C(=O)NCCCCN1CCN(c2nsc3ccccc23)CC1 | 1.3 nM | 9.6 nM | 1.3 nM | 0.9 mg/kg | 9.7 mg/kg |  | ED50 [6]: 57.9 mg/kg; ED50 [7]: 69.3 mg/kg; Ratio [8]: 7; Ratio [9]: 6
O=C(NCCCCN1CCN(c2nsc3ccccc23)CC1)c1cccc2[nH]cnc12 | 4.2 nM |  | 0.29 nM | > 25 mg/kg |  | 7.6 nM | 
O=C(NCCCCN1CCN(c2nsc3ccccc23)CC1)c1ccccn1 | 2.8 nM | 24 nM | 1.5 nM |  |  |  | ED50 [11]: < 25 mg/kg; ED50 [12]: 16.6 mg/kg
Nc1cnccc1C(=O)NCCCCN1CCN(c2nsc3ccccc23)CC1 | 7 nM |  | 1.5 nM |  |  |  | 
Nc1ncccc1C(=O)NCCCCN1CCN(c2nsc3ccccc23)CC1 | 3.3 nM | 7.8 nM | 1.5 nM | 6.4 mg/kg | 17.1 mg/kg |  | 
Nc1sccc1C(=O)NCCCCN1CCN(c2nsc3ccccc23)CC1 | 2 nM |  | 2.3 nM | 4.8 mg/kg | > 25 mg/kg | 11 nM | 
Nc1c(C(=O)NCCCCN2CCN(c3nsc4ccccc34)CC2)sc2ccccc12 | 5.8 nM | 5.8 nM | 0.85 nM | 2.2 mg/kg | 51.6 mg/kg |  | 
Nc1ccncc1C(=O)NCCCCN1CCN(c2nsc3ccccc23)CC1 | 5.1 nM |  | 3.1 nM | > 25 mg/kg |  | 4.7 nM | 
O=C(NCCCCN1CCN(c2nsc3ccccc23)CC1)c1ccncc1 | 6.6 nM |  | 2.3 nM |  |  | 25 nM | ED50 [13]: 4.6 mg/kg; ED50 [14]: 34 mg/kg
O=C(NCCCCN1CCN(c2nsc3ccccc23)CC1)c1cccc2cccnc12 | 4.3 nM |  | 2.4 nM | < 25 mg/kg | 54.4 mg/kg | 14 nM | 
Cc1nc2n(c(=O)c1CCN1CCC(c3noc4cc(F)ccc34)CC1)CCCC2 [RISPERIDONE] | 430 nM | 23 nM |  |  |  |  | ED50 [15]: 1.4 mg/kg; ED50 [11]: 0.3 mg/kg; ED50 [16]: 3.2 mg/kg; ED50 [12]: 0.9 mg/kg
O=C(NCCCCN1CCN(c2nsc3ccccc23)CC1)c1cccc2c1NCCC2 | 1.9 nM | 28 nM | 2.4 nM | < 25 mg/kg |  |  | 
O=C(NCCCCN1CCN(c2nsc3ccccc23)CC1)c1c[nH]c2ccccc12 | 5.8 nM |  | 1.3 nM | > 25 mg/kg |  | 14 nM | 
Nc1cscc1C(=O)NCCCCN1CCN(c2nsc3ccccc23)CC1 | 3.5 nM | 6 nM | 2.5 nM | 1.7 mg/kg | 12.6 mg/kg |  | 
O=C(NCCCCN1CCN(c2nsc3ccccc23)CC1)c1[nH]nc2ccccc12 | 3.6 nM | 2.2 nM | 0.35 nM | < 25 mg/kg | 31.8 mg/kg |  | 
